Data taken from patent publication US6677309B1, “Anti-cancer drug aldehyde conjugate drugs with enhanced cytotoxicity compounds, compositions and methods” (University Technology Corporation, priority 1997, dated 2004).
Read-outs that look alike come from different tables or passages of the source.

Columns and labels:
[1] = Hydrolysis in aqueous phosphate buffer, HPLC; type: physicochemical
Method: See Example 16. […] The DMSO was present to increase solubility.
Second, the kinetics of hydrolysis were measured in pH 6.0 phosphate buffer.
A 960 μL solution of pH 7.3 phosphate buffer was heated to 37° C. […] No change in the chromatography was observed if pH, 7.3 phosphate buffer was used as the eluent in place of pH 7.4 TEAA buffer.

[2] = Hydrolysis in fetal bovine serum, HPLC; type: in vitro ADME; settings: pH 8.1, in serum at 37° C., read-out: half-life of the equilibrium mixture with intermediate B with respect to formation of intermediates C and D
[3] = test system: PC-3; test: Prostate cancer cell cytotoxicity, crystal violet assay, PC-3; type: cell-based, human; settings: 3 h drug
Method: (§1) Toxicity to the three prostate cancer cell lines, LNCaP, DU-145, and PC-3 were measured in two different media, RPMI-1640 and DMEM (Dulbecco's Modified Eagle Medium), both supplemented with 10% fetal bovine serum.
(§2) Cell lines were maintained in vitro in RPMI 1640 media or DMEM, each supplemented with 10% fetal bovine serum, 2 mM L-glutamine, 10 mM HEPES buffer, penicillin (100 units/mL) and streptomycin (100 μg/mL).
(§3) Cells were dissociated with trypsin/EDTA, counted, and suspended in growth media (RPMI or DMEM) to a concentration of 5.6×10^3 cells/mL. Cell suspensions were dispensed in 180 μL aliquots into 96-well tissue culture plates. […] Each 100× solution was diluted 10× in growth media (RPMI or DMEM), and a 20 μL aliquot of the resulting 10× solution was immediately (<10s) added to-the appropriate lane. Additionally, one lane was treated with 20 μL of 10% DMSO in growth media (no drug) and one lane was treated with 200 μL of 1.5 M Tris buffer (no cells). The cells were incubated with the drugs for 3 h at 37° C. The drug solutions were then removed and replaced with 200 μL of fresh media. The cells were incubated for 4 days (7 days for PC-3 cells in DMEM) at 37° C. in a humidified atmosphere of 5% CO2 and 95% air. Cell survival was determined using a crystal violet assay as described earlier (Fenick, D. J. et al (1997) J. Med. Chem. 40: 2452-2461).

[4] = test system: DU-145; test: Prostate cancer cell cytotoxicity, crystal violet assay, DU-145; type: cell-based, human; settings: 3 h drug, 4 days growth
Method: as §1, §2, §3

[5] = amorphous material

| Compound | half-life at 25 µM ([1]; pH 6.0 phosphate buffer, 37° C.) [h] | time the equilibrium mixture is stable ([1]; pH 7.3, at equilibrium) | half-life ([1]; pH 7.3 phosphate buffer, 37° C., read-out: half-life of hydrolysis, forward reaction (A⇄B) to C+D (converted)) [h] | half-life at 25 µM [2] [h] | IC50 ([3]; DMEM with 10% fetal bovine serum, 7 days growth, read-out: IC50 Values, PC-3/DMEM (converted)) [nM] | IC50 ([3]; RPMI-1640 with 10% fetal bovine serum, 4 days growth, read-out: IC50 Values, PC-3/RPMI-1640 (converted)) [nM] | IC50 ([4]; DMEM with 10% fetal bovine serum, read-out: IC50 Values, DU-145/DMEM (converted)) [nM] | IC50 ([4]; RPMI-1640 with 10% fetal bovine serum, read-out: IC50 Values, DU-145/RPMI-1640 (converted)) [nM] | concentration to which the material dissolved instantly in dimethylsulfoxide [5] [µg/mL] |
| --- | --- | --- | --- | --- | --- | --- | --- | --- | --- |
| COc1cccc2c1C(=O)c1c(O)c3c(c(O)c1C2=O)CC(O)(C(=O)CO)CC3OC1CC2C(OCN3CN2COC2C(C)OC(OC4C[C@](O)(C(=O)CO)Cc5c(O)c6c(c(O)c54)C(=O)c4c(OC)cccc4C6=O)CC23)C(C)O1 (stereo partly drawn) [EPIF] | 0.25 | at least 2 days | ~2 | ≥ 2 | – | – | – | – | – |
| COc1cccc2c1C(=O)c1c(O)c3c(c(O)c1C2=O)C[C@@](O)(C(C)=O)C[C@@H]3O[C@H]1C[C@H]2[C@H](OCN2CN2CO[C@@H]3[C@H](C)O[C@@H](O[C@H]4C[C@](O)(C(C)=O)Cc5c(O)c6c(c(O)c54)C(=O)c4c(OC)cccc4C6=O)C[C@@H]32)[C@H](C)O1 [DAUNF, bis(3′-N-(3′-N,4′-O-methylenedaunorubicinyl))methane] | – | – | – | – | 0.5 | 2.5 | 4 | 5 | ≥ 20000 |
